This is an account of results in ChEMBL document CHEMBL1201862, “PubChem BioAssay data set” (2004).

Some test systems named below: OVCAR-5; HCT-15; HT-29; HCT-116; Hs-578T; MOLT-4; TK-10; CCRF-CEM; SK-MEL-28; OVCAR-3; KM-20L2; SF-268; MDA-MB-231; HCC 2998; UACC-62; SN12C; 786-0; COLO 205; U-251; LOX IMVI.
Holding throughout (assay): NCI tumour cell line growth inhibition, 48 h

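Growth conditions: 96-well plates. Treatment: test compound, 48 hours, 5 concentrations. Analysis: linear interpolation between bracketing concentrations; unreached endpoints set to highest concentration. GI50: concentration for 50% inhibition of growth.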 Active and inactive are the calls of the source. Cut-off read from the data, not from the text of the source: active = GI50 up to about 1.1 µM and inactive = higher.

Regarding `CCC(=O)OC1CCn2c1nc1c2C(=O)C(C)=C(N2CC2)C1=O` (stereo not given), the GI50 in the test with OVCAR-5 is 0.0902 µM (active); in the test with HCT-15, 0.0275 µM; in the test on HT-29 it was 0.183 µM (active); in the test on HCT-116 it was 0.0935 µM (active); in the test on Hs-578T it was 0.0455 µM (active); in the test with MOLT-4, 3.41 µM (inactive). In addition, the GI50 is 0.0383 µM (active) with TK-10; 0.59 µM (active) in the test with CCRF-CEM; 0.0791 µM (active) in the test on SK-MEL-28; 0.067 µM (active) in the test on OVCAR-3; 0.233 µM (active) in the test on KM-20L2; 0.0755 µM (active) with SF-268. For the same compound, the GI50 was 1.42 µM (inactive) with MDA-MB-231; 0.0615 µM (active) in the test with HCC 2998; 0.0607 µM (active) in the test on UACC-62; 0.0881 µM (active) in the test on SN12C; 0.0841 µM (active) in the test with 786-0; 0.199 µM (active) with COLO 205. In addition, the results for the GI50 in the test on U-251 and in the test with LOX IMVI were 0.0371 µM (active) and 0.0771 µM (active), respectively.
Take `CCOc1ccc(/N=C/c2ccnc3ccccc23)cc1`: the GI50 in the test with OVCAR-5 was 99.3 µM (inactive); in the test on HCT-15, 11.5 µM; in the test with HT-29, 27.3 µM (inactive); in the test with HCT-116 it was 0.912 µM (active); in the test on Hs-578T, 40.4 µM (inactive); with MOLT-4, 5.9 µM (inactive). The GI50 with TK-10 was 92.3 µM (inactive); with CCRF-CEM it was 2.63 µM (inactive); in the test on SK-MEL-28, 50.1 µM (inactive); with OVCAR-3, 31 µM (inactive); in the test on KM-20L2, 43.7 µM (inactive); in the test on SF-268, 27.2 µM (inactive). The GI50 is 20.7 µM (inactive) in the test with MDA-MB-231; 32.4 µM (inactive) in the test with HCC 2998; 60.8 µM (inactive) in the test on UACC-62; 29 µM (inactive) with SN12C; 57.1 µM (inactive) in the test on 786-0; 81.3 µM (inactive) in the test on COLO 205. Moreover, the GI50 in the test with U-251 was 32.7 µM (inactive); in the test with LOX IMVI it was 13.2 µM (inactive).
